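Exposure lasted 48 hours, with cells grown in 96-well plates and compounds tested at five concentrations. GI50: concentration for 50% inhibition of growth. At the TGI there is no net growth.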
Columns and labels:
Assay in all cases: inhibition of tumour cell growth, NCI panel, 48 h
UACC-257 melanoma = test system: UACC-257 melanoma
SF-295 CNS = test system: SF-295 CNS
A498 renal = test system: A498 renal
COLO 205 colon = test system: COLO 205 colon
NCI-H460 lung = test system: NCI-H460 lung
NCI-H522 lung = test system: NCI-H522 lung
SF-539 CNS = test system: SF-539 CNS
RXF 393 renal = test system: RXF 393 renal
HL-60(TB) leukemia = test system: HL-60(TB) leukemia
MCF7 breast = test system: MCF7 breast
SF-268 CNS = test system: SF-268 CNS
OVCAR-3 ovarian = test system: OVCAR-3 ovarian
HCC-2998 colon = test system: HCC-2998 colon
UACC-62 melanoma = test system: UACC-62 melanoma
IGROV1 ovarian = test system: IGROV1 ovarian
HT29 colon = test system: HT29 colon
UO-31 renal = test system: UO-31 renal
DU-145 prostate = test system: DU-145 prostate
SNB-75 CNS = test system: SNB-75 CNS
MDA-MB-231 breast = test system: MDA-MB-231 breast
EKVX NSCLC = test system: EKVX NSCLC
LOX IMVI melanoma = test system: LOX IMVI melanoma
MALME-3M melanoma = test system: MALME-3M melanoma
SK-MEL-2 melanoma = test system: SK-MEL-2 melanoma
SN12C renal = test system: SN12C renal
SK-MEL-5 melanoma = test system: SK-MEL-5 melanoma
OVCAR-5 ovarian = test system: OVCAR-5 ovarian
MOLT-4 leukemia = test system: MOLT-4 leukemia
SR leukemia = test system: SR leukemia
CAKI-1 renal = test system: CAKI-1 renal
HCT-116 colon = test system: HCT-116 colon
BT-549 breast = test system: BT-549 breast
KM12 colon = test system: KM12 colon
PC-3 prostate = test system: PC-3 prostate
HCT-15 colon = test system: HCT-15 colon
TK-10 renal = test system: TK-10 renal
SNB-19 CNS = test system: SNB-19 CNS
HOP-92 NSCLC = test system: HOP-92 NSCLC
OVCAR-8 ovarian = test system: OVCAR-8 ovarian
T-47D breast = test system: T-47D breast
NCI-H226 lung = test system: NCI-H226 lung
NCI-H23 lung = test system: NCI-H23 lung
MDA-MB-435 = test system: MDA-MB-435
M14 melanoma = test system: M14 melanoma
RPMI-8226 leukemia = test system: RPMI-8226 leukemia
CCRF-CEM leukemia = test system: CCRF-CEM leukemia
SW-620 colon = test system: SW-620 colon
NCI/ADR-RES ovarian = test system: NCI/ADR-RES ovarian
HOP-62 NSCLC = test system: HOP-62 NSCLC
U251 CNS = test system: U251 CNS
SK-OV-3 ovarian = test system: SK-OV-3 ovarian
A549 NSCLC = test system: A549 NSCLC
786-0 renal = test system: 786-0 renal
K-562 leukemia = test system: K-562 leukemia
OVCAR-4 ovarian = test system: OVCAR-4 ovarian
ACHN renal = test system: ACHN renal
HS 578T breast = test system: HS 578T breast

Compound: CCn1cc(C(=O)N/N=C/c2cccc(F)c2)c(=O)c2cc(F)c(N3CCNC(C)C3)c(F)c21 (centres undefined)
- GI50 (UACC-257 melanoma): 1.67 µM
- TGI (UACC-257 melanoma): 3.17 µM
- GI50 (SF-295 CNS): 1.8 µM
- TGI (SF-295 CNS): 3.29 µM
- GI50 (A498 renal): 1.28 µM
- TGI (A498 renal): 6.36 µM
- GI50 (COLO 205 colon): 1.71 µM
- TGI (COLO 205 colon): 3.25 µM
- GI50 (NCI-H460 lung): 1.68 µM
- TGI (NCI-H460 lung): 3.14 µM
- GI50 (NCI-H522 lung): 1.76 µM
- TGI (NCI-H522 lung): 3.32 µM
- GI50 (SF-539 CNS): 1.59 µM
- TGI (SF-539 CNS): 2.96 µM
- GI50 (RXF 393 renal): 1.69 µM
- TGI (RXF 393 renal): 3.22 µM
- GI50 (HL-60(TB) leukemia): 1.88 µM
- TGI (HL-60(TB) leukemia): 3.66 µM
- GI50 (MCF7 breast): 1.64 µM
- TGI (MCF7 breast): 3.18 µM
- GI50 (SF-268 CNS): 1.8 µM
- TGI (SF-268 CNS): 3.52 µM
- GI50 (OVCAR-3 ovarian): 1.82 µM
- TGI (OVCAR-3 ovarian): 3.4 µM
- GI50 (HCC-2998 colon): 1.86 µM
- TGI (HCC-2998 colon): 3.53 µM
- GI50 (UACC-62 melanoma): 1.77 µM
- TGI (UACC-62 melanoma): 3.2 µM
- GI50 (IGROV1 ovarian): 1.58 µM
- TGI (IGROV1 ovarian): 3.16 µM
- GI50 (HT29 colon): 1.55 µM
- TGI (HT29 colon): 2.98 µM
- GI50 (UO-31 renal): 1.46 µM
- TGI (UO-31 renal): 2.79 µM
- GI50 (DU-145 prostate): 1.67 µM
- TGI (DU-145 prostate): 3.05 µM
- GI50 (SNB-75 CNS): 1.52 µM
- TGI (SNB-75 CNS): 2.87 µM
- GI50 (MDA-MB-231 breast): 1.68 µM
- TGI (MDA-MB-231 breast): 3.14 µM
- GI50 (EKVX NSCLC): 1.6 µM
- TGI (EKVX NSCLC): 3.06 µM
- GI50 (LOX IMVI melanoma): 1.71 µM
- TGI (LOX IMVI melanoma): 3.21 µM
- GI50 (MALME-3M melanoma): 1.72 µM
- TGI (MALME-3M melanoma): 3.23 µM
- GI50 (SK-MEL-2 melanoma): 1.97 µM
- TGI (SK-MEL-2 melanoma): 3.86 µM
- GI50 (SN12C renal): 1.62 µM
- TGI (SN12C renal): 3.11 µM
- GI50 (SK-MEL-5 melanoma): 1.75 µM
- TGI (SK-MEL-5 melanoma): 3.19 µM
- GI50 (OVCAR-5 ovarian): 1.7 µM
- TGI (OVCAR-5 ovarian): 3.1 µM
- GI50 (MOLT-4 leukemia): 1.75 µM
- TGI (MOLT-4 leukemia): 3.4 µM
- GI50 (SR leukemia): 1.33 µM
- TGI (SR leukemia): 3.14 µM
- GI50 (CAKI-1 renal): 1.73 µM
- TGI (CAKI-1 renal): 3.15 µM
- GI50 (HCT-116 colon): 1.75 µM
- TGI (HCT-116 colon): 3.47 µM
- GI50 (BT-549 breast): 1.62 µM
- TGI (BT-549 breast): 3.05 µM
- GI50 (KM12 colon): 1.83 µM
- TGI (KM12 colon): 3.39 µM
- GI50 (PC-3 prostate): 1.62 µM
- TGI (PC-3 prostate): 3.09 µM
- GI50 (HCT-15 colon): 1.46 µM
- TGI (HCT-15 colon): 2.84 µM
- GI50 (TK-10 renal): 1.73 µM
- TGI (TK-10 renal): 3.18 µM
- GI50 (SNB-19 CNS): 1.7 µM
- TGI (SNB-19 CNS): 3.15 µM
- GI50 (HOP-92 NSCLC): 1.12 µM
- TGI (HOP-92 NSCLC): 2.42 µM
- GI50 (OVCAR-8 ovarian): 1.76 µM
- TGI (OVCAR-8 ovarian): 3.32 µM
- GI50 (T-47D breast): 1.61 µM
- TGI (T-47D breast): 3.25 µM
- GI50 (NCI-H226 lung): 1.97 µM
- TGI (NCI-H226 lung): 4.13 µM
- GI50 (NCI-H23 lung): 1.83 µM
- TGI (NCI-H23 lung): 3.45 µM
- GI50 (MDA-MB-435): 1.71 µM
- TGI (MDA-MB-435): 3.12 µM
- GI50 (M14 melanoma): 1.82 µM
- TGI (M14 melanoma): 3.37 µM
- GI50 (RPMI-8226 leukemia): 1.79 µM
- TGI (RPMI-8226 leukemia): 3.77 µM
- GI50 (CCRF-CEM leukemia): 1.55 µM
- TGI (CCRF-CEM leukemia): 3.39 µM
- GI50 (SW-620 colon): 1.68 µM
- TGI (SW-620 colon): 3.17 µM
- GI50 (NCI/ADR-RES ovarian): 1.81 µM
- TGI (NCI/ADR-RES ovarian): 3.41 µM
- GI50 (HOP-62 NSCLC): 1.66 µM
- TGI (HOP-62 NSCLC): 3.09 µM
- GI50 (U251 CNS): 1.61 µM
- TGI (U251 CNS): 3.03 µM
- GI50 (SK-OV-3 ovarian): 1.78 µM
- TGI (SK-OV-3 ovarian): 3.28 µM
- GI50 (A549 NSCLC): 1.74 µM
- TGI (A549 NSCLC): 3.29 µM
- GI50 (786-0 renal): 1.63 µM
- TGI (786-0 renal): 3.16 µM
- GI50 (K-562 leukemia): 1.04 µM
- TGI (K-562 leukemia): 2.4 µM
- GI50 (OVCAR-4 ovarian): 2.02 µM
- TGI (OVCAR-4 ovarian): 4.22 µM
- GI50 (ACHN renal): 1.63 µM
- TGI (ACHN renal): 2.99 µM
- GI50 (HS 578T breast): 4.4 µM
- TGI (HS 578T breast): 25.5 µM

Source: PubChem BioAssay (NCI)
